Series [1] in a line: Oral bioavailability in human. In kind it is ADME, organism-based. Conditions: in vivo.
For series [2], the target named is T1, Tyrosine-protein phosphatase non-receptor type 11 (Homo sapiens, UniProt Q06124).
T1 sequence (Q06124 whole entry): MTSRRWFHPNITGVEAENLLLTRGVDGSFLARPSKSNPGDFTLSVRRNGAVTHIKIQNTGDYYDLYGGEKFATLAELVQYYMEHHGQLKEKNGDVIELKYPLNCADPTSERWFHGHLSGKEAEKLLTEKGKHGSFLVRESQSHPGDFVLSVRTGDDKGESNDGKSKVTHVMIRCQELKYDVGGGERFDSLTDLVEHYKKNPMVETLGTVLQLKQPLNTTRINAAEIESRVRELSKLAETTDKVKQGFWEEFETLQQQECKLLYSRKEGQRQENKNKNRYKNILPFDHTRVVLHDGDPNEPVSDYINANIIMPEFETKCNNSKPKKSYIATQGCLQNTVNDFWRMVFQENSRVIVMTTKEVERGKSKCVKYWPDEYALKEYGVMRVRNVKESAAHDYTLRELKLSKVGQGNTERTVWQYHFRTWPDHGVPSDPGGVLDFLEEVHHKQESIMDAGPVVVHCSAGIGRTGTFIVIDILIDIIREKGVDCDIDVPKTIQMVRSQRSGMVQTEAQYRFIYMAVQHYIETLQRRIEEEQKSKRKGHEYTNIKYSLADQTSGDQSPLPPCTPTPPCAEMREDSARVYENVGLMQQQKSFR
Kind of series: Inhibition of human SHP2.

The subject of another series is KYSE-520 cell line. Kind of series: Antiproliferative activity against human KYSE520 cells assessed as reduction in cell viability by WST-8 assay. Background: Tetrazolium dyes change colour on reduction, which living cells bring about.
The nature of series [3]: Oral bioavailability in Sprague-Dawley rat at 10 mg/kg by LC-MS analysis. In kind it is ADME, organism-based. Conditions: in vivo.

Here are results for three molecules from ChEMBL document CHEMBL6083181, “Advances in SHP2 tunnel allosteric inhibitors and bifunctional molecules” (Eur J Med Chem, 2024).

Consider `CC1(N)CCN(c2cnc(-c3cccc(Cl)c3Cl)c(N)n2)CC1`, for which, in series [1], the bioavailability was 46%.

Take `C[C@H]1OCC2(CCN(c3cnc(Sc4ccnc(NC(=O)CCCCCCNC(=O)c5cccnc5)c4Cl)c(N)n3)CC2)[C@H]1N`: the IC50 in series [2] is less than 0.01 µM.

`CC1(N)CCN(c2cnc3c(Sc4ccncc4Cl)n[nH]c3n2)CC1`: the IC50 with KYSE-520 cell line stood at 5.73 µM. Moreover, in series [3], the bioavailability came to 42.5%.

As usually defined, the bioavailability is dose-corrected exposure relative to a reference, in per cent. Low values mean poor availability, high ones good availability. The IC50 is the concentration that gives 50% inhibition.
